Assay results from PubChem BioAssay (NCI).
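Cultured in 96-well plates, cells were exposed to test compound for 48 hours across five concentrations. The concentration for 50% growth inhibition is given as GI50. The concentration for full growth arrest is given as TGI.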

Tests used:
Experiment in all cases: NCI-60 cell line screen, 48 h
CAKI-1 renal = tested on: CAKI-1 renal
RPMI-8226 leukemia = tested on: RPMI-8226 leukemia
COLO 205 colon = tested on: COLO 205 colon
MCF7 breast = tested on: MCF7 breast
EKVX NSCLC = tested on: EKVX NSCLC
HT29 colon = tested on: HT29 colon
SR leukemia = tested on: SR leukemia
HCC-2998 colon = tested on: HCC-2998 colon
HCT-116 colon = tested on: HCT-116 colon
SK-MEL-2 melanoma = tested on: SK-MEL-2 melanoma
HOP-92 NSCLC = tested on: HOP-92 NSCLC
LOX IMVI melanoma = tested on: LOX IMVI melanoma
NCI-H23 lung = tested on: NCI-H23 lung
SF-268 CNS = tested on: SF-268 CNS
MDA-MB-435 = tested on: MDA-MB-435
UO-31 renal = tested on: UO-31 renal
NCI-H226 lung = tested on: NCI-H226 lung
MDA-MB-231 breast = tested on: MDA-MB-231 breast
MOLT-4 leukemia = tested on: MOLT-4 leukemia
NCI-H460 lung = tested on: NCI-H460 lung
HL-60(TB) leukemia = tested on: HL-60(TB) leukemia
BT-549 breast = tested on: BT-549 breast
HS 578T breast = tested on: HS 578T breast
SK-MEL-28 melanoma = tested on: SK-MEL-28 melanoma
786-0 renal = tested on: 786-0 renal
KM12 colon = tested on: KM12 colon
SNB-75 CNS = tested on: SNB-75 CNS
T-47D breast = tested on: T-47D breast
HOP-62 NSCLC = tested on: HOP-62 NSCLC
MALME-3M melanoma = tested on: MALME-3M melanoma
SF-539 CNS = tested on: SF-539 CNS
NCI/ADR-RES ovarian = tested on: NCI/ADR-RES ovarian
OVCAR-8 ovarian = tested on: OVCAR-8 ovarian
NCI-H522 lung = tested on: NCI-H522 lung
SF-295 CNS = tested on: SF-295 CNS
CCRF-CEM leukemia = tested on: CCRF-CEM leukemia
DU-145 prostate = tested on: DU-145 prostate
SNB-19 CNS = tested on: SNB-19 CNS
TK-10 renal = tested on: TK-10 renal
UACC-257 melanoma = tested on: UACC-257 melanoma
SK-MEL-5 melanoma = tested on: SK-MEL-5 melanoma
OVCAR-5 ovarian = tested on: OVCAR-5 ovarian
U251 CNS = tested on: U251 CNS
A549 NSCLC = tested on: A549 NSCLC
OVCAR-4 ovarian = tested on: OVCAR-4 ovarian
SN12C renal = tested on: SN12C renal
IGROV1 ovarian = tested on: IGROV1 ovarian
M14 melanoma = tested on: M14 melanoma
K-562 leukemia = tested on: K-562 leukemia
ACHN renal = tested on: ACHN renal
PC-3 prostate = tested on: PC-3 prostate
SW-620 colon = tested on: SW-620 colon
RXF 393 renal = tested on: RXF 393 renal
UACC-62 melanoma = tested on: UACC-62 melanoma

Cc1cc(N)c2ccccc2[n+]1CCCCCCCCCCNc1cc(C)[n+](CCCCCCCCCC[n+]2c(C)cc(N)c3ccccc32)c2ccccc12
TGI (CAKI-1 renal): > 100 µM
TGI (RPMI-8226 leukemia): 1.52 µM
TGI (COLO 205 colon): > 100 µM
TGI (MCF7 breast): > 100 µM
TGI (EKVX NSCLC): 33.7 µM
TGI (HT29 colon): 29 µM

C(=N\Nc1ncc(-c2cc3cc4c(cc3o2)OCO4)s1)/c1ccco1
GI50 (SR leukemia): 1.29 µM
TGI (SR leukemia): 25.3 µM
GI50 (HCC-2998 colon): 3.52 µM
TGI (HCC-2998 colon): 12.9 µM
GI50 (HCT-116 colon): 1.57 µM
TGI (HCT-116 colon): 4.03 µM
GI50 (SK-MEL-2 melanoma): 3.11 µM
TGI (SK-MEL-2 melanoma): 11.3 µM
GI50 (HOP-92 NSCLC): 1.94 µM
TGI (HOP-92 NSCLC): 8.98 µM
GI50 (LOX IMVI melanoma): 1.35 µM
TGI (LOX IMVI melanoma): 2.76 µM
GI50 (NCI-H23 lung): 1.51 µM
TGI (NCI-H23 lung): 4.22 µM
GI50 (SF-268 CNS): 2.67 µM
TGI (SF-268 CNS): 23.1 µM
GI50 (CAKI-1 renal): 0.854 µM
TGI (CAKI-1 renal): 6.69 µM
GI50 (MDA-MB-435): 2.86 µM
TGI (MDA-MB-435): 10.2 µM
GI50 (UO-31 renal): 0.59 µM
TGI (UO-31 renal): 3.68 µM
GI50 (NCI-H226 lung): 3.67 µM
TGI (NCI-H226 lung): 18.9 µM
GI50 (MDA-MB-231 breast): 1.64 µM
TGI (MDA-MB-231 breast): 3.83 µM
GI50 (RPMI-8226 leukemia): 3.08 µM
TGI (RPMI-8226 leukemia): 13.3 µM
GI50 (MOLT-4 leukemia): 0.946 µM
TGI (MOLT-4 leukemia): 14.5 µM
GI50 (NCI-H460 lung): 2.59 µM
TGI (NCI-H460 lung): 10.3 µM
GI50 (HL-60(TB) leukemia): 2.7 µM
TGI (HL-60(TB) leukemia): 7.59 µM
GI50 (BT-549 breast): 3.43 µM
TGI (BT-549 breast): 15.2 µM
GI50 (HS 578T breast): 2.74 µM
TGI (HS 578T breast): 22.2 µM
GI50 (SK-MEL-28 melanoma): 3.42 µM
TGI (SK-MEL-28 melanoma): 12.3 µM
GI50 (786-0 renal): 1.97 µM
TGI (786-0 renal): 4.94 µM
GI50 (MCF7 breast): 0.683 µM
TGI (MCF7 breast): 7.18 µM
GI50 (KM12 colon): 1.85 µM
TGI (KM12 colon): 5.14 µM
GI50 (SNB-75 CNS): 1.86 µM
TGI (SNB-75 CNS): 11.4 µM
GI50 (T-47D breast): 1.27 µM
TGI (T-47D breast): 9.74 µM
GI50 (HOP-62 NSCLC): 3.04 µM
TGI (HOP-62 NSCLC): 12.6 µM
GI50 (MALME-3M melanoma): 1.92 µM
TGI (MALME-3M melanoma): 6.18 µM
GI50 (EKVX NSCLC): 2.25 µM
TGI (EKVX NSCLC): 10.9 µM
GI50 (SF-539 CNS): 1.58 µM
TGI (SF-539 CNS): 3.96 µM
GI50 (NCI/ADR-RES ovarian): 2.21 µM
TGI (NCI/ADR-RES ovarian): > 100 µM
GI50 (OVCAR-8 ovarian): 2.8 µM
TGI (OVCAR-8 ovarian): > 100 µM
GI50 (NCI-H522 lung): 0.625 µM
TGI (NCI-H522 lung): 2.97 µM
GI50 (SF-295 CNS): 2.78 µM
TGI (SF-295 CNS): 11.5 µM
GI50 (CCRF-CEM leukemia): 0.551 µM
TGI (CCRF-CEM leukemia): 16.2 µM
GI50 (HT29 colon): 2.99 µM
TGI (HT29 colon): 7.62 µM
GI50 (DU-145 prostate): 2.02 µM
TGI (DU-145 prostate): 5.49 µM
GI50 (SNB-19 CNS): 4.73 µM
TGI (SNB-19 CNS): 23.1 µM
GI50 (TK-10 renal): 3.38 µM
TGI (TK-10 renal): 24.7 µM
GI50 (UACC-257 melanoma): 3.83 µM
TGI (UACC-257 melanoma): 23.2 µM
GI50 (SK-MEL-5 melanoma): 2.07 µM
TGI (SK-MEL-5 melanoma): 4.6 µM
GI50 (OVCAR-5 ovarian): 2.71 µM
TGI (OVCAR-5 ovarian): 8.67 µM
GI50 (U251 CNS): 2.9 µM
TGI (U251 CNS): 14.5 µM
GI50 (A549 NSCLC): 1.79 µM
TGI (A549 NSCLC): 6.87 µM
GI50 (OVCAR-4 ovarian): 1.27 µM
TGI (OVCAR-4 ovarian): 12.2 µM
GI50 (SN12C renal): 2.97 µM
TGI (SN12C renal): 12.7 µM
GI50 (IGROV1 ovarian): 2.6 µM
TGI (IGROV1 ovarian): 8.09 µM
GI50 (M14 melanoma): 2.9 µM
TGI (M14 melanoma): 11.6 µM
GI50 (K-562 leukemia): 2.1 µM
TGI (K-562 leukemia): > 100 µM
GI50 (ACHN renal): 1.85 µM
TGI (ACHN renal): 11.3 µM
GI50 (PC-3 prostate): 1.79 µM
TGI (PC-3 prostate): 12.4 µM
GI50 (SW-620 colon): 0.681 µM
TGI (SW-620 colon): 2.48 µM
GI50 (RXF 393 renal): 1.8 µM
TGI (RXF 393 renal): 5.13 µM
GI50 (UACC-62 melanoma): 3.81 µM
TGI (UACC-62 melanoma): 14.5 µM
